The test system of assay [1] is patient with persistent angina. Kind of assay: Example I: GTN therapy of persistent angina, patient. The assay is classed as in vivo, human. The procedure:
A patient has persistent angina. Treatment by infusion with GTN 100 mcg/min has no effect. Infusion of nitroglycerin 100 mcg/min is continued along with infusion of N-acetylcysteine at 50 mg/kg every six hours.

The test system of assay [2] is patient with congestive heart failure. The experiment in a line: Example II: GTN therapy of congestive heart failure, patient. The assay is classed as in vivo, human. The method, then:
A patient has congestive heart failure manifested by pulmonary congestion and low ventricular function. Treatment by infusion with GTN (100 mcg/min) has no effect. Infusion of GTN (100 mcg/min) is continued along with infusion of N-acetylcysteine at 50 mg/kg every 6 hours. After 10 minutes time, pulmonary congestion attenuates and ventricular function improves.

In assay [3] the test system is patient with Type 1 diabetes on insulin regimen who develops angina. The experiment in a line: Example III: GTN therapy of angina, Type 1 diabetes patient on insulin regimen. It is filed as in vivo, human.
Assay [4] concerns alcoholic patient who develops angina. The experiment in a line: Example IV: GTN therapy of angina in an alcoholic. The assay is classed as in vivo, human. The following applies: for resolution of angina: 600 mg P.O. (TID) with sublingual GTN (0.4 mg). From the text: A alcoholic needs to imbibe alcohol to avoid withdrawal symptoms. The patient develops angina. Sublingual GTN ([…]) has no effect.

In assay [5] the test system is patient with heart attack (myocardial infarction). The experiment in a line: Example V: myocardial infarction, patient. It is filed as in vivo, human. Conditions: IV GTN alone. The text has this: A patient has a heart attack (myocardial infarction).
Assay [6] concerns alcoholic with restenosis and chest pain. The experiment in a line: Example VI: restenosis and chest pain in an alcoholic. It is filed as in vivo, human. The text has this: A alcoholic has restenosis and chest pain.
Assay [7] deals with person with high blood pressure. Kind of assay: Example VII: high blood pressure. It is filed as in vivo, human. The following applies: 50 mg/min IV GTN alone; 200 mmHg systolic. The procedure:
A person has high blood pressure (200 mmHg systolic). […] Administration of Composition V (50 mg/ml and NAC 75 mg/ml) at 1 ml/min causes blood pressure to fall to 160 mmHg.

Assay [8] has as its system alcoholic with chronic obstructive pulmonary disease. Kind of assay: Example VIII: obstructive lung disease in an alcoholic, shortness of breath. It is filed as in vivo, human. The text has this:
A alcoholic with obstructive lung disease (chronic obstructive pulmonary disease) has shortness of breath.

For a further assay, the system named is Patient with asthma. The experiment in a line: Example IX: asthma, patient, shortness of breath. The assay is classed as in vivo, human. Conditions: nebulized combination of GTN (100 micromolar) and NAC (dose of I millimolar). From the text: A patient with asthma experiences shortness of breath.
Assay [9] has as its system Patient with interstitial lung disease (pulmonary fibrosis). The experiment in a line: Example X: interstitial lung disease (pulmonary fibrosis), patient. It is filed as in vivo, human. The following applies: nebulized GTN (10 micromolar) together with nebulized NAC (1 millimolar); patient on prednisone therapy. From the text: A patient with interstitial lung disease (pulmonary fibrosis) experiences shortness of breath despite being on prednisone therapy.

For assay [10], the system named is patients receiving continuous GTN. Conditions: intravenous NAC, short term studies; cited from earlier work.
Setting [11] is: infusion of GTN 100 mcg/min alone.
Setting [12] is: infusion of N-acetylcysteine 50 mg/kg every six hours along with infusion of nitroglycerin 100 mcg/min.
Where [13] appears, read: infusion of N-acetylcysteine 50 mg/kg every 6 hours along with infusion of GTN 100 mcg/min.

For the compound `O=[N+]([O-])OCC(CO[N+](=O)[O-])O[N+](=O)[O-]` [GTN, nitroglycerin], in assay [1] (setting [11]), the “effect on persistent angina” value is reported as “no effect”. For the same compound, the “effect on congestive heart failure (pulmonary congestion, low ventricular function)” value in [2] (setting [11]) was “no effect”. Besides, the effect on angina result in assay [3] (sublingual GTN (0.4 mcg) alone) and in assay [4] (sublingual GTN (0.4 mcg) alone) was “no effect” in each case. Also, the “response of myocardial infarction patient” value in assay [5] was “does not respond”. Further, the chest pain result in assay [6] (sublingual GTN 0.5 mg alone) was “does not relieve chest pain”. In addition, in assay [7], the “response of high blood pressure” value is on record as “does not respond”. Moreover, the shortness of breath entry in assay [8] (nebulized GTN at a dose of 100 micromolar alone) is listed as “does not cause improvement”.
For `CC(=O)N[C@@H](CS)C(=O)O` [N-acetylcysteine], the resolution of angina result in [1] (setting [12]) was “the angina is resolved”; in assay [3] (N-acetylcysteine 600 mg P.O. TID along with sublingual GTN (0.4 mg)), “causes the angina to resolve”; in assay [4], “resolution of the angina”. Moreover, the “time until angina is resolved” value in assay [1] (setting [12]) was found to be 3 min. Moreover, the pulmonary congestion entry in assay [2] (setting [13]) is reported as “attenuates”. Also, the “time until pulmonary congestion attenuates and ventricular function improves” value in assay [2] (setting [13]) stood at 10 min. The ventricular function result in [2] (setting [13]) is “improves”. Further, in assay [6] (oral NAC (300 mg) supplementing sublingual GTN 0.5 mg), the chest pain entry is on record as “chest pain is relieved”. The shortness of breath result in [8] (nebulized combination of GTN (100 micromolar) and NAC (1 millimolar)) is “causes improvement”; in the assay on Patient with asthma, “causes improvement”; in assay [9], “causes improvement”. In addition, in assay [10], the GTN tolerance entry is on record as “reverse GTN tolerance”.
On to `O=C1O[C@H]([C@@H](O)CO)C(O)=C1O` [Vitamin C, ascorbic acid], for which the resolution of angina result in assay [3] (Vitamin C 10,000 mg/day P.O. along with sublingual GTN (0.4 mg)) was “causes the angina to resolve”. Further, the chest pain result in assay [6] (oral vitamin C (10,000 mg/day P.O.) supplementing sublingual GTN 0.5 mg) is given as “chest pain is relieved”.
Take `N[C@@H](CCC(=O)N[C@@H](CS)C(=O)NCC(=O)O)C(=O)O` [glutathione]: the resolution of angina entry in assay [4] is given as “resolution of the angina”. The chest pain result in assay [6] (glutathione 60 mg P.O. (T.I.D.) supplementing sublingual GTN 0.5 mg) was “chest pain is relieved”.
